Source: PubChem BioAssay AID1919009 (Molecular Pharmacology Branch, DTP, NCI, 2023)

Test system: K24384-001-R-PDC complex spheroid growth
Experiment: Anticancer human tumor K24384-001-R-PDC patient-derived pancreatic adenocarcinoma cell line growth inhibition [AhR]
Conditions: for IC50: curve of first compound; for viability, T/C: stronger effect = lower value
Description: Multicellular complex tumor spheroid response to aryl hydrocarbon receptor antagonists in combination with a variety of drugs and investigational agents in selected tumor cell lines
The current study was undertaken to assess response to aryl hydrocarbon receptor antagonists in combination with standard-of-care drugs and investigational agents in solid tumor complex spheroid models. Complex spheroids include a stromal component modeled by human endothelial cells (HUVEC) and fibroblasts modeled by human mesenchymal stem cells (MSCs). The concentration ranges selected for each drug and investigational agent were based upon clinically achievable concentrations if the clinical Cmax of the agent was known.
Compounds. The drugs and investigational agents: BAY 2416964 (NSC825713), GNF351 (NSC835774), CH-223191 (NSC835775), CPI-455 (NSC825282), aza-TdCyd (NSC777586), decitabine (NSC127716), belinostat (NSC758774), entinostat (NSC756642), pevonedistat (NSC761192), tazemetostat (NSC777109), talazoparib (NSC765396), olaparib (NSC753686), selinexor (NSC780203), nedisertib (M3814, NSC802822), bortezomib (NSC756655), venetoclax (NSC766270), doxorubicin (NSC123127), elimusertib (BAY189344, NSC800525), ceralasertib (AZD6738, NSC777638), TAK-243 (NSC785004), alisertib (NSC759677), etoposide (NSC141540), topotecan (NSC609699), eribulin (NSC707389), gemcitabine (NSC613327), carboplatin (NSC241240), cisplatin (NSC119875), and SN-38 (NSC673596) were obtained from the National Cancer Institute (NCI) Developmental Therapeutics Program Chemical Repository (32). The FDA-approved anticancer drug set is available from the Developmental Therapeutics Program at https://dtp.cancer.gov/organization/dscb/obtaining/available plates.htm. […] The stock solutions were prepared in dimethyl sulfoxide (DMSO, Sigma-Aldrich, St. Louis, MO, cat. D2650), except for the platinum compounds which were prepared in saline (Quality Biological, Gaithersburg, MD, cat. 114-055-101), at 800-fold the tested concentration and stored at -70 degrees C prior to their use. All drugs and investigational agents were tested over a range starting from a high concentration at or near the clinical Cmax and decreasing in half-log increments. If the clinical Cmax for an agent had not been determined, the highest concentration tested was 10 microM (Table 1).
Cell Culture. All cells were maintained in an incubator at 37 degrees C and 5% CO2 with 95% humidity. The PDC lines were cultured according to standard operating procedures established by the NCI PDMR (https://pdmr.cancer.gov). Briefly, all PDCs were thawed and cultured in Matrigel-coated flasks prepared with a working solution of 1X Ham's F-12 nutrient mix, without supplementation (Invitrogen, Waltham, MA, cat. 11765054), 100 U/mL penicillin-streptomycin (Invitrogen, cat. 15140122), and 2.5% Matrigel (Corning Inc., Corning, NY, cat. 354248) for the first three passages. All PDCs were cultured in complete DMEM/F-12 media containing advanced DMEM/F-12 (Invitrogen, cat. 12634028), 4.9% defined fetal bovine serum, heat inactivated (HyClone Laboratories Inc., Logan, UT, cat. SH30070.03HI), 389 ng/mL hydrocortisone (Sigma-Aldrich, cat. H4001), 9.7 ng/mL human EGF recombinant protein (Invitrogen, cat. PHG0313), 23.4 microg/mL adenine (Sigma-Aldrich, cat. A2786), 97.3 U/mL penicillin-streptomycin (Invitrogen, cat. 15140122), 1.9 mM L-glutamine (Invitrogen, cat. 25030081), and 9.7 microM Y-27632 dihydrochloride (Tocris Bioscience, Bristol, United Kingdom, cat. 1254). The PDCs were cultured in complete DMEM/F12 media without 10 microM Y-27632 dihydrochloride for at least two passages prior to the screen. The established cell lines NCI-H1341 and […] were cultured in DMEM/F-12, HEPES (Invitrogen, cat. 11330032), 5% defined fetal bovine serum (HyClone Laboratories Inc., cat. SH30070.03), ITS premix universal culture supplement [insulin (5 microg/mL), transferrin (5 microg/mL), and selenious acid (5 ng/mL)] […]

[1] = second compound 0.1 µM, first compound 0.0316 µM
[2] = second compound 0.1 µM, first compound 0.1 µM
[3] = second compound 0.1 µM, first compound 0.316 µM
[4] = second compound 0.1 µM, first compound 1 µM
[5] = second compound 0.1 µM, first compound 3.16 µM
[6] = second compound 0.1 µM, first compound 10 µM
[7] = second compound 0.316 µM, first compound 0.0316 µM
[8] = second compound 0.316 µM, first compound 0.1 µM
[9] = second compound 0.316 µM, first compound 0.316 µM
[10] = second compound 0.316 µM, first compound 1 µM
[11] = second compound 0.316 µM, first compound 3.16 µM
[12] = second compound 0.316 µM, first compound 10 µM
[13] = second compound 1 µM, first compound 0.0316 µM
[14] = second compound 1 µM, first compound 0.1 µM
[15] = second compound 1 µM, first compound 0.316 µM
[16] = second compound 1 µM, first compound 1 µM
[17] = second compound 1 µM, first compound 3.16 µM
[18] = second compound 1 µM, first compound 10 µM
[19] = second compound 3.16 µM, first compound 0.0316 µM
[20] = second compound 3.16 µM, first compound 0.1 µM
[21] = second compound 3.16 µM, first compound 0.316 µM
[22] = second compound 3.16 µM, first compound 1 µM
[23] = second compound 3.16 µM, first compound 3.16 µM
[24] = second compound 3.16 µM, first compound 10 µM
[25] = second compound 10 µM, first compound 0.0316 µM
[26] = second compound 10 µM, first compound 0.1 µM
[27] = second compound 10 µM, first compound 0.316 µM
[28] = second compound 10 µM, first compound 1 µM
[29] = second compound 10 µM, first compound 3.16 µM
[30] = second compound 10 µM, first compound 10 µM
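Throughout, for viability, T/C: percent of DMSO vehicle-treated spheroid viability set as 100%.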

Row | SMILES | IC50 (second compound 0.1 µM) [nM] | IC50 (second compound 0.316 µM) [nM] | IC50 (second compound 1 µM) [nM] | IC50 (second compound 3.16 µM) [nM] | IC50 (second compound 10 µM) [nM] | viability, T/C [1] [%] | viability, T/C [2] [%] | viability, T/C [3] [%] | viability, T/C [4] [%] | viability, T/C [5] [%] | viability, T/C [6] [%] | viability, T/C [7] [%] | viability, T/C [8] [%] | viability, T/C [9] [%] | viability, T/C [10] [%] | viability, T/C [11] [%] | viability, T/C [12] [%] | viability, T/C [13] [%] | viability, T/C [14] [%] | viability, T/C [15] [%] | other results
1 | COc1cc(Nc2ncc3c(n2)-c2ccc(Cl)cc2C(c2c(F)cccc2OC)=NC3)ccc1C(=O)O + CC(CO)NC(=O)c1cc(-c2ccc(Cl)cc2)nn(-c2cnn(C)c2)c1=O | 2010 | 7780 | > 10000 | > 10000 | > 10000 | 87.6 | 80.7 | 84 | 57.6 | 44.5 | 45.5 | 81 | 79.9 | 76.4 | 57.5 | 48.4 | 51.6 | 92.3 | 77.7 | 79.4 | viability, T/C [16]: 60.5%; viability, T/C [17]: 49.5%; viability, T/C [18]: 55%; viability, T/C [19]: 90.6%; viability, T/C [20]: 73.4%; viability, T/C [21]: 72.5%; viability, T/C [22]: 54%; viability, T/C [23]: 62.3%; viability, T/C [24]: 58.6%; viability, T/C [25]: 94%; viability, T/C [26]: 77.1%; viability, T/C [27]: 80.7%; viability, T/C [28]: 69.7%; viability, T/C [29]: 64%; viability, T/C [30]: 65.8%
2 | NS(=O)(=O)OCC1CC(n2ccc3c(NC4CCc5ccccc54)ncnc32)CC1O (stereo not given) + CC(CO)NC(=O)c1cc(-c2ccc(Cl)cc2)nn(-c2cnn(C)c2)c1=O | 984 | 811 | 860 | 473 | 642 | 114 | 123 | 116 | 49 | 28.7 | 25.3 | 132 | 147 | 89.4 | 45.6 | 26.6 | 22.1 | 152 | 162 | 72 | viability, T/C [16]: 38.2%; viability, T/C [17]: 32.9%; viability, T/C [18]: 22.5%; viability, T/C [19]: 125%; viability, T/C [20]: 128%; viability, T/C [21]: 60.6%; viability, T/C [22]: 38.8%; viability, T/C [23]: 28.6%; viability, T/C [24]: 23.1%; viability, T/C [25]: 87.1%; viability, T/C [26]: 79.8%; viability, T/C [27]: 59.1%; viability, T/C [28]: 44.7%; viability, T/C [29]: 29.6%; viability, T/C [30]: 24.6%
3 | O=C(C=Cc1cccc(S(=O)(=O)Nc2ccccc2)c1)NO + CC(CO)NC(=O)c1cc(-c2ccc(Cl)cc2)nn(-c2cnn(C)c2)c1=O | 1580 | 2210 | 2000 | 1600 | 1800 | 97.1 | 126 | 126 | 65.4 | 28.5 | 2.04 | 119 | 130 | 122 | 96.1 | 29.3 | 1.86 | 123 | 127 | 137 | viability, T/C [16]: 81%; viability, T/C [17]: 30.5%; viability, T/C [18]: 1.91%; viability, T/C [19]: 107%; viability, T/C [20]: 103%; viability, T/C [21]: 136%; viability, T/C [22]: 73.3%; viability, T/C [23]: 20.5%; viability, T/C [24]: 1%; viability, T/C [25]: 107%; viability, T/C [26]: 117%; viability, T/C [27]: 98.9%; viability, T/C [28]: 73%; viability, T/C [29]: 28.4%; viability, T/C [30]: 0.81%
